Measured values reported in PubChem BioAssay AID330 (DTP/NCI, 2004).
“And” between values parts separate entries of the source, which are not always exact repeats. Identical values can stand only once. Toxic doses and inconclusive results are not listed.

Test system: P388 leukemia ip, CD2F1 mice, survival T/C
Experiment: NCI In Vivo Anticancer Drug Screen. Data for tumor model P388 Leukemia (intraperitoneal) in CD2F1 (CDF1) mice
Conditions: endpoint: median survival time, higher = longer survival
Method in brief: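 Mice carrying the transplanted tumor received test compound or vehicle. Survival was recorded in each group, and the value is the treated-group measurement divided by that of the vehicle-treated control group.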

[1] = dose: 6.25 mg/kg/injection, schedule: Q01DX009 (ip), vehicle: saline with Tween-80
[2] = dose: 12.5 mg/kg/injection, schedule: Q01DX009 (ip), vehicle: saline with Tween-80
[3] = dose: 12.5 mg/kg/injection, schedule: Q01DX009 (ip), vehicle: saline
[4] = dose: 50.0 mg/kg/injection, schedule: Q01DX009 (ip), vehicle: saline
[5] = dose: 50.0 mg/kg/injection, schedule: Q01DX005 (ip), vehicle: Klucel (hydroxypropylcellulose) (HPC)
[6] = dose: 100.0 mg/kg/injection, schedule: Q01DX005 (ip), vehicle: Klucel (hydroxypropylcellulose) (HPC)
[7] = dose: 200.0 mg/kg/injection, schedule: Q01DX005 (ip), vehicle: Klucel (hydroxypropylcellulose) (HPC)
[8] = dose: 100.0 mg/kg/injection, schedule: Q01DX001 (ip), vehicle: Klucel (hydroxypropylcellulose) (HPC)
[9] = dose: 200.0 mg/kg/injection, schedule: Q01DX001 (ip), vehicle: Klucel (hydroxypropylcellulose) (HPC)
[10] = dose: 400.0 mg/kg/injection, schedule: Q01DX001 (ip), vehicle: Klucel (hydroxypropylcellulose) (HPC)
[11] = dose: 100.0 mg/kg/injection, schedule: Q01DX009 (ip), vehicle: saline
[12] = dose: 60.0 mg/kg/injection, schedule: Q01DX005 (ip), vehicle: saline with Tween-80
[13] = dose: 50.0 mg/kg/injection, schedule: Q01DX009 (ip), vehicle: saline with Tween-80
[14] = dose: 100.0 mg/kg/injection, schedule: Q01DX009 (ip), vehicle: saline with Tween-80

Cc1cc[n+](Cc2cc3ccccc3nc2Cl)cc1C
T/C (dose: 3.75 mg/kg/injection, schedule: Q01DX005 (ip), vehicle: saline): 110 % of control
T/C (dose: 7.5 mg/kg/injection, schedule: Q01DX005 (ip), vehicle: saline): 93 % of control
T/C (dose: 15.0 mg/kg/injection, schedule: Q01DX005 (ip), vehicle: saline): 104 % of control
T/C (dose: 30.0 mg/kg/injection, schedule: Q01DX005 (ip), vehicle: saline): 107 % of control

O=S(=O)(O)O.[NH-]CCC[NH-].[Pt+2]
T/C (dose: 6.25 mg/kg/injection, schedule: Q04DX002 (ip), vehicle: saline): 168 % of control
T/C (dose: 12.5 mg/kg/injection, schedule: Q04DX002 (ip), vehicle: saline): 158 % of control

CNCC(=O)NC(CO)C(=O)NC(CO)C(=O)NC1C(C(N)=O)OC(n2ccc(N)nc2=O)C(O)C1O (stereo unspecified)
T/C (dose: 0.1 mg/kg/injection, schedule: Q01DX009 (ip), vehicle: water): 101 % of control
T/C (dose: 0.2 mg/kg/injection, schedule: Q01DX009 (ip), vehicle: water): 100 % of control
T/C (dose: 0.4 mg/kg/injection, schedule: Q01DX009 (ip), vehicle: water): 117 % of control
T/C (dose: 0.8 mg/kg/injection, schedule: Q01DX009 (ip), vehicle: water): 95 % of control

Cc1nn(-c2ccc(S(=O)(=O)[O-])cc2)c([O-])c1N=[N+](C)c1ccc(-c2ccc(N=Nc3ccc4c(S(=O)(=O)[O-])cc(S(=O)(=O)[O-])c(N)c4c3[O-])c([O-])c2)cc1[O-].[Cu+2].[Cu+2].[Na+]
T/C (dose: 3.12 mg/kg/injection, schedule: Q01DX009 (ip), vehicle: saline with Tween-80): 96 % of control
T/C [1]: 96 % of control
T/C [2]: 99 % of control and 86 % of control
T/C [3]: 97 % of control
T/C [4]: 96 % of control

COc1c2c(c(OC)c3c1C(=O)c1ccccc1C3O)CC=CC2 (stereo unspecified)
T/C (dose: 25.0 mg/kg/injection, schedule: Q01DX009 (ip), vehicle: other): 94 % of control
T/C (dose: 50.0 mg/kg/injection, schedule: Q01DX009 (ip), vehicle: other): 91 % of control
T/C (dose: 100.0 mg/kg/injection, schedule: Q01DX009 (ip), vehicle: other): 91 % of control
T/C (dose: 200.0 mg/kg/injection, schedule: Q01DX009 (ip), vehicle: other): 95 % of control
T/C (dose: 400.0 mg/kg/injection, schedule: Q01DX009 (ip), vehicle: other): 100 % of control

CCCCCOc1cc2c(cc1C(C)c1ccc(OC)cc1)OCO2 (stereo unspecified)
T/C [5]: 107 % of control
T/C [6]: 103 % of control
T/C [7]: 98 % of control

C1CSCCSCCCSCCSCCCSCCSC1
T/C [8]: 97 % of control
T/C [9]: 105 % of control
T/C [10]: 97 % of control

CCN1C(=O)C2C3C=CC(C2C1=O)C1C2C(=O)N(CC)C(=O)C2C31 (stereo unspecified)
T/C (dose: 100.0 mg/kg/injection, schedule: Q01DX001 (ip), vehicle: suspension in saline): 99 % of control
T/C (dose: 200.0 mg/kg/injection, schedule: Q01DX001 (ip), vehicle: suspension in saline): 96 % of control
T/C (dose: 400.0 mg/kg/injection, schedule: Q01DX001 (ip), vehicle: suspension in saline): 100 % of control

CCn1c(O)c(N=NC(=S)c2ccc3ccccc3n2)c2ccccc21
T/C [4]: 104 % of control
T/C [11]: 96 % of control
T/C (dose: 200.0 mg/kg/injection, schedule: Q01DX009 (ip), vehicle: saline): 86 % of control

OC(ON=C1CCCCC1)c1ccc2c(c1)OCO2 (stereo unspecified)
T/C (dose: 50.0 mg/kg/injection, schedule: Q01DX005 (ip), vehicle: saline with Tween-80): 96 % of control
T/C (dose: 100.0 mg/kg/injection, schedule: Q01DX005 (ip), vehicle: saline with Tween-80): 103 % of control
T/C (dose: 200.0 mg/kg/injection, schedule: Q01DX005 (ip), vehicle: saline with Tween-80): 107 % of control

NC(=S)c1ccc(/C=N/c2nccs2)cc1
T/C [8]: 105 % of control
T/C [9]: 104 % of control
T/C [10]: 105 % of control

Cc1cc(N=[N+]=[N-])c2ccc(Cl)cc2n1
T/C [12]: 94 % of control
T/C (dose: 120.0 mg/kg/injection, schedule: Q01DX005 (ip), vehicle: saline with Tween-80): 100 % of control

Cc1cc(C)c(C(CC(=O)O)C(CC(=O)O)c2c(C)cc(C)cc2C)c(C)c1 (stereo unspecified)
T/C (dose: 60.0 mg/kg/injection, schedule: Q01DX005 (ip), vehicle: Klucel (hydroxypropylcellulose) (HPC)): 90 % of control

CCC12C=CCN3CC[C@@]4(c5cc([C@@]6(C(=O)OC)C[C@@H]7CN(CCc8c6[nH]c6ccccc86)C[C@](O)(CC)C7)c(OC)cc5N(C)[C@H]4[C@@](O)(C(=O)NCCCCCCCCCCCC(=O)O)[C@@H]1O)C32 (stereo partly specified)
T/C (dose: 11.25 mg/kg/injection, schedule: Q01DX001 (ip), vehicle: other): 164 % of control
T/C (dose: 11.25 mg/kg/injection, schedule: Q01DX001 (ip), vehicle: saline with Tween-80): 153 % of control
T/C (dose: 11.25 mg/kg/injection, schedule: Q01DX001 (ip), vehicle: saline): 189 % of control
T/C (dose: 22.5 mg/kg/injection, schedule: Q01DX001 (ip), vehicle: saline with Tween-80): 164 % of control
T/C (dose: 45.0 mg/kg/injection, schedule: Q01DX001 (ip), vehicle: saline with Tween-80): 182 % of control

O=S1(=O)CN2C=CC=CC2=N1
T/C [1]: 106 % of control
T/C [2]: 104 % of control
T/C (dose: 25.0 mg/kg/injection, schedule: Q01DX009 (ip), vehicle: saline with Tween-80): 105 % of control
T/C [13]: 105 % of control

CN(c1ccccc1)C1CS(=O)(=O)OC2=C1CCCC2 (stereo unspecified)
T/C [13]: 98 % of control
T/C [14]: 102 % of control
T/C (dose: 200.0 mg/kg/injection, schedule: Q01DX009 (ip), vehicle: saline with Tween-80): 104 % of control

CC(O)CNCCNc1ccc(NCCNCC(C)O)c2c1C(=O)c1c(O)ccc(O)c1C2=O (stereo unspecified)
T/C (dose: 0.5 mg/kg/injection, schedule: Q01DX009 (ip), vehicle: acid diluted with saline): 165 % of control
T/C (dose: 1.0 mg/kg/injection, schedule: Q01DX009 (ip), vehicle: acid diluted with saline): 150 % of control
T/C (dose: 2.0 mg/kg/injection, schedule: Q01DX009 (ip), vehicle: acid diluted with saline): 200 % of control
T/C (dose: 4.0 mg/kg/injection, schedule: Q01DX009 (ip), vehicle: acid diluted with saline): 234 % of control
T/C (dose: 8.0 mg/kg/injection, schedule: Q01DX009 (ip), vehicle: acid diluted with saline): 202 % of control

Nc1nc(Sc2ccc([N+](=O)[O-])c3nonc23)c2ncn(C3OC(CO)C(O)C3O)c2n1 (stereo unspecified)
T/C (dose: 3.12 mg/kg/injection, schedule: Q01DX009 (ip), vehicle: Klucel (hydroxypropylcellulose) (HPC)): 113 % of control
T/C (dose: 6.25 mg/kg/injection, schedule: Q01DX009 (ip), vehicle: Klucel (hydroxypropylcellulose) (HPC)): 113 % of control
T/C (dose: 25.0 mg/kg/injection, schedule: Q01DX009 (ip), vehicle: Klucel (hydroxypropylcellulose) (HPC)): 122 % of control
T/C (dose: 50.0 mg/kg/injection, schedule: Q01DX009 (ip), vehicle: Klucel (hydroxypropylcellulose) (HPC)): 102 % of control and 118 % of control

O=c1[nH]c(-c2ccc(O)cc2)cc2ccccc12
T/C (dose: 100.0 mg/kg/injection, schedule: Q04DX002 (ip), vehicle: saline with Tween-80): 99 % of control
T/C (dose: 200.0 mg/kg/injection, schedule: Q04DX002 (ip), vehicle: saline with Tween-80): 100 % of control
T/C (dose: 400.0 mg/kg/injection, schedule: Q04DX002 (ip), vehicle: saline with Tween-80): 100 % of control

CCOS(=O)(=O)c1ccc([N+](=O)[O-])cc1
T/C [3]: 95 % of control
T/C (dose: 25.0 mg/kg/injection, schedule: Q01DX009 (ip), vehicle: saline): 100 % of control
T/C [4]: 98 % of control
T/C [11]: 100 % of control and 90 % of control

CC(=O)/C=C1\C(=O)OCC1(C)C
T/C (dose: 100.0 mg/kg/injection, schedule: Q04DX003 (ip), vehicle: saline): 105 % of control
T/C (dose: 200.0 mg/kg/injection, schedule: Q04DX003 (ip), vehicle: saline): 108 % of control
T/C (dose: 400.0 mg/kg/injection, schedule: Q04DX003 (ip), vehicle: saline): 111 % of control

O=C(O)CC1CCC1CC(=O)O (stereo unspecified)
T/C [13]: 95 % of control
T/C [14]: 95 % of control

CN(C)n1c(O)c(N=O)sc1=S
T/C [5]: 96 % of control
T/C [6]: 95 % of control

O=C(O)c1cccc(-c2nn[nH]n2)c1
T/C [5]: 93 % of control
T/C [6]: 90 % of control
T/C [7]: 102 % of control

O=C(OCOC(=O)N1CCOCC1)N1CCOCC1
T/C [12]: 105 % of control
T/C (dose: 240.0 mg/kg/injection, schedule: Q01DX005 (ip), vehicle: saline with Tween-80): 94 % of control
